Experiments:
Aurora kinase A = biological target: T1, Aurora kinase A (Homo sapiens, UniProt O14965); assay: Inhibition of aurora A kinase using 5TAMRA-GRTGRRNSICOOH as substrate by fluorescent assay
T1 sequence (O14965 whole entry): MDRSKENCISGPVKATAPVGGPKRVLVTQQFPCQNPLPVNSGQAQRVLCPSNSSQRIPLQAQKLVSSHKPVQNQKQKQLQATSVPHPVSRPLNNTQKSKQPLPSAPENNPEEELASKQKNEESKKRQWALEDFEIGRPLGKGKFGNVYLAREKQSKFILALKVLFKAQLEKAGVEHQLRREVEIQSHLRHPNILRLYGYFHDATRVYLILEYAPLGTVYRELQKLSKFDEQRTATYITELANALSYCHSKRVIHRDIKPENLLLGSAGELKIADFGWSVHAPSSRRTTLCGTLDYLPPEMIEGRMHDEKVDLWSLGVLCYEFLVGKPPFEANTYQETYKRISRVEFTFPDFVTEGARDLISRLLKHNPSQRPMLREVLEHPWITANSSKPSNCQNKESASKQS

Aurora kinase B [1] = biological target: T2, Aurora kinase B (Homo sapiens, UniProt Q96GD4); assay: Inhibition of aurora B kinase using 5TAMRA-GRTGRRNSICOOH as substrate by fluorescent assay
T2 sequence (Q96GD4 whole entry): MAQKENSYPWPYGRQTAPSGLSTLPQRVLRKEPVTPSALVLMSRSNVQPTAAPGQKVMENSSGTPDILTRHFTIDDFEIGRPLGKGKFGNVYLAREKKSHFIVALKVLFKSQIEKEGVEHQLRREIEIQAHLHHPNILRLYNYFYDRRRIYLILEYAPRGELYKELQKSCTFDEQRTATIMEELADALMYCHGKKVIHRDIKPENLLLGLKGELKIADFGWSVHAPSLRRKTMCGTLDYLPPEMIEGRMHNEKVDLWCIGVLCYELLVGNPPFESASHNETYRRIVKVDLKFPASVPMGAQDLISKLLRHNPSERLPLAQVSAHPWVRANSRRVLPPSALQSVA

Aurora kinase B [2] = biological target: T2, Aurora kinase B; assay: Inhibition of aurora B kinase in human HCT116 cells assessed as inhibition of histone H3 phosphorylation incubated for 1 hr by Hoechst 33342 staining based microscopic analysis; type: cell-based, HCT-116
[3] = biological target: Ribosomal protein S6 kinase alpha-3 (Homo sapiens, UniProt P51812); assay: Inhibition of RSK2
Chain of Ribosomal protein S6 kinase alpha-3 (P51812 whole entry): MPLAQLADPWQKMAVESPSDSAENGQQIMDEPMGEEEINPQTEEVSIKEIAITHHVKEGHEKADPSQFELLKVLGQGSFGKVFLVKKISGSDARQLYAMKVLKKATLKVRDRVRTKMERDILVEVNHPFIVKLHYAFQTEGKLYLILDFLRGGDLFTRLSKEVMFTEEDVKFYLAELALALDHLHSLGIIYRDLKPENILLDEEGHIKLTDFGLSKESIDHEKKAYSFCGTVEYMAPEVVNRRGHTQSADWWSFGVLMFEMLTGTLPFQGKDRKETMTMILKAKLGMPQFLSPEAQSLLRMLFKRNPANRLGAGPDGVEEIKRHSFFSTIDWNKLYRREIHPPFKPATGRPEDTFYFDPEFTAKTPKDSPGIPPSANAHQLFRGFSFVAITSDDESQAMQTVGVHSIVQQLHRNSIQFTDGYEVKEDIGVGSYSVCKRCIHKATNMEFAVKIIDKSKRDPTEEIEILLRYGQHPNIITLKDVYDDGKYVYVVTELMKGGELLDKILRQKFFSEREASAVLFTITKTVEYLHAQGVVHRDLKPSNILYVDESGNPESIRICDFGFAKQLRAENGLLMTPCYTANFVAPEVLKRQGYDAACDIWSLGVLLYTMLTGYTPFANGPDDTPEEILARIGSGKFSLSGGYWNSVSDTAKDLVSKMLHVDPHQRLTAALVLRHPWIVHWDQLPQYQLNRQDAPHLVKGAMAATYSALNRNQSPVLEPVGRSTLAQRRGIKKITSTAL

[4] = biological target: Tyrosine-protein kinase Lck (Homo sapiens, UniProt P06239); assay: Inhibition of LCK
Chain of Tyrosine-protein kinase Lck (P06239 whole entry): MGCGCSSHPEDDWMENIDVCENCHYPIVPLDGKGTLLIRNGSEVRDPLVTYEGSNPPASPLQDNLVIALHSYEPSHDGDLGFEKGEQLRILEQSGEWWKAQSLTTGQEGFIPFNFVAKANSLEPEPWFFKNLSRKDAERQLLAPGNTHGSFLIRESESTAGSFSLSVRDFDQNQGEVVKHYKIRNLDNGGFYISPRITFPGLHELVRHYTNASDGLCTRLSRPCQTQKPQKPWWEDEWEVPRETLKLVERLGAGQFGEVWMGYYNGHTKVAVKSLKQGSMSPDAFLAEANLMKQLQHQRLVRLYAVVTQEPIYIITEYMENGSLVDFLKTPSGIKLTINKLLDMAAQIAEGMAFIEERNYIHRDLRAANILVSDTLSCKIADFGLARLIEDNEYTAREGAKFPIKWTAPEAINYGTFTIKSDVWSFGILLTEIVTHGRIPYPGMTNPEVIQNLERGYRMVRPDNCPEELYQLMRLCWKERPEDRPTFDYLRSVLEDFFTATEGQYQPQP

[5] = biological target: T3, Serine/threonine-protein kinase Chk1 (Homo sapiens, UniProt O14757); assay: Inhibition of Chk1
T3 sequence (O14757 whole entry): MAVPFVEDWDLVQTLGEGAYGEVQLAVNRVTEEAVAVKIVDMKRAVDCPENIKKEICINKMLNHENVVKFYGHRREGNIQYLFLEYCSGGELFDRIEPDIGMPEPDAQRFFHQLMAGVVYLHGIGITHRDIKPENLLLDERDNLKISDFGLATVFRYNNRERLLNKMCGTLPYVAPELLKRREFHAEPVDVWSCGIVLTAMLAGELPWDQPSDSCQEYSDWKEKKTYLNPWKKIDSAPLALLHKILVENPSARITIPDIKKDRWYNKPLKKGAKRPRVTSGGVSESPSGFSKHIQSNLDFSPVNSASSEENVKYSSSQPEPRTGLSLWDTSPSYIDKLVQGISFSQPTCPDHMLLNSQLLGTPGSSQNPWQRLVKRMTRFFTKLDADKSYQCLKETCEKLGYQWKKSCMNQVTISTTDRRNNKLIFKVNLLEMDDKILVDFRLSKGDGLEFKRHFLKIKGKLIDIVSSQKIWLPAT

[6] = biological target: T4, Interleukin-1 receptor-associated kinase 4 (Homo sapiens, UniProt Q9NWZ3); assay: Inhibition of IRAK4
T4 sequence (Q9NWZ3 whole entry): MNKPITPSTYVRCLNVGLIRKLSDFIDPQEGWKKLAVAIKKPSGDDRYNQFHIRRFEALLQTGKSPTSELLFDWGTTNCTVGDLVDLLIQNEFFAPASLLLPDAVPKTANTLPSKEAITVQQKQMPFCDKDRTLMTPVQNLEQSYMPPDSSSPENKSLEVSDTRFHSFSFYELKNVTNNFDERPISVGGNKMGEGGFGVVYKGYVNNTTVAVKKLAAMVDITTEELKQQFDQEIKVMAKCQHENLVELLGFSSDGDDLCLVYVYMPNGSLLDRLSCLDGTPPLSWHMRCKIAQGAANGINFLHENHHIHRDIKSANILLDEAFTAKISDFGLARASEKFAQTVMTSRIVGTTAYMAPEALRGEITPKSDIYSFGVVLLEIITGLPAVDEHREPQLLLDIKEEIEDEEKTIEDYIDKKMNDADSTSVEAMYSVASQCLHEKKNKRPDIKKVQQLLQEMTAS

[7] = biological target: Vascular endothelial growth factor receptor 2 (Homo sapiens, UniProt P35968); assay: Inhibition of VEGFR2
Chain of Vascular endothelial growth factor receptor 2 (P35968 whole entry): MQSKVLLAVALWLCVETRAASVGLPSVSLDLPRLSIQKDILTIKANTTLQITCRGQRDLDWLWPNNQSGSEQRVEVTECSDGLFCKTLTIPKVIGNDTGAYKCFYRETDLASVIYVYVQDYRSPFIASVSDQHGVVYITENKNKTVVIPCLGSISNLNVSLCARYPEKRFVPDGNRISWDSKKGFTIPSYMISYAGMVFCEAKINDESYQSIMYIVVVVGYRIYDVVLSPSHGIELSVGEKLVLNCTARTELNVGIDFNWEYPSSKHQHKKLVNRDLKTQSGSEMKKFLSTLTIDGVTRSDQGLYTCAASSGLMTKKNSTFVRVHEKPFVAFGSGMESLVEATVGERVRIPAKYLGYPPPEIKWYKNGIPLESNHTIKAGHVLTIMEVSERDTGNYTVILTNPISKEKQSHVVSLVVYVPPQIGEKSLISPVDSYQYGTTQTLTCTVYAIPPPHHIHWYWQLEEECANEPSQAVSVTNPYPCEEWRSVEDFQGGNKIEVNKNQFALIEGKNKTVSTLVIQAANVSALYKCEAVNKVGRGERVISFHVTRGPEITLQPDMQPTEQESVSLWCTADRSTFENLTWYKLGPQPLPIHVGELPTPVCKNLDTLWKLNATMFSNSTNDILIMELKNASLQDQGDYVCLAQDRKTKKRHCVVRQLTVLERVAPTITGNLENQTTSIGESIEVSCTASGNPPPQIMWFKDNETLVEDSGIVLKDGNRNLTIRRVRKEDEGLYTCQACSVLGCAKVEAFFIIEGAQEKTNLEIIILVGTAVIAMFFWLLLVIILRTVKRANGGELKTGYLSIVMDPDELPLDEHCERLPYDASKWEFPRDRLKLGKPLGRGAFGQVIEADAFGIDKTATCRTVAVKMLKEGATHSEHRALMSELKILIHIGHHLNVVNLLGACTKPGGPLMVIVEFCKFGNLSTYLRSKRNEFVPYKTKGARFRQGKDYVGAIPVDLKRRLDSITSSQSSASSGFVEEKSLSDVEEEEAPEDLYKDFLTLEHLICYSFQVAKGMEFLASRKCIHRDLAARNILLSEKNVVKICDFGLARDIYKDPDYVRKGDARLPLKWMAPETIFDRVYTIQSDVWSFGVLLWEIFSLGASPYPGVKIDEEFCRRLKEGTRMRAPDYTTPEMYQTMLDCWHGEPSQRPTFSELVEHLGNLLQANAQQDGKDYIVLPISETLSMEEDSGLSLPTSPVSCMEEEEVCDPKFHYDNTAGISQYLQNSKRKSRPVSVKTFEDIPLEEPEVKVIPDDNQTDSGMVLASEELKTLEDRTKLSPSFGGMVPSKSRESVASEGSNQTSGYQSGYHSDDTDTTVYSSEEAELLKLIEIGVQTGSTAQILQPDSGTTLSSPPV

Structure (SMILES)	IC50 (Aurora kinase A) [nM]	IC50 (Aurora kinase B [1]) [nM]	EC50 (Aurora kinase B [2]) [nM]	IC50 [3] [µM]	IC50 [4] [nM]	IC50 [5] [nM]	IC50 [6] [nM]	IC50 [7] [nM]
Cc1cn2c(-c3cnn(CC(=O)NCCN(C)C)c3)cnc2c(Nc2cc(CN3CCCC(C)C3)ns2)n1 (stereo unspecified)	> 3000	761	–	–	–	–	–	–
Cc1cn2c(-c3cnn(CC(=O)N4CCOCC4)c3)cnc2c(Nc2cc(CN3CCCCC3)ns2)n1	> 3000	> 3000	–	–	–	–	–	–
Cc1cn2c(-c3cnn(CC(=O)Nc4cccnc4F)c3)cnc2c(Nc2cc(CN3CCCC(C)C3)ns2)n1 (stereo unspecified)	753	81	110	–	–	–	–	–
Cc1cn2c(-c3cnn(CC(N)=O)c3)cnc2c(Nc2cc(CN3CCCCC3)ns2)n1	1570	28	> 1000	–	–	–	–	–
Cc1cn2c(-c3cnn(CC(=O)NCc4cccc(C(F)(F)F)c4)c3)cnc2c(Nc2cc(CN3CCCC(C)C3)ns2)n1 (stereo unspecified)	413	35	> 1000	–	–	–	–	–
Cc1cn2c(-c3cnn(CC(=O)Nc4cccnn4)c3)cnc2c(Nc2cc(CN3CCCC(C)C3)ns2)n1 (stereo unspecified)	638	45	951	–	–	–	–	–
Cc1cn2c(-c3cnn(CC(=O)NCc4ccncc4)c3)cnc2c(Nc2cc(CN3CCCC(C)C3)ns2)n1 (stereo unspecified)	2450	1110	–	–	–	–	–	–
Cc1cn2c(-c3cnn(CC(=O)NCc4cccnc4)c3)cnc2c(Nc2cc(CN3CCCC(C)C3)ns2)n1 (stereo unspecified)	434	439	–	–	–	–	–	–
Cc1cn2c(-c3cnn(CC(=O)NCc4cccc(N(C)C)c4)c3)cnc2c(Nc2cc(CN3CCCC(C)C3)ns2)n1 (stereo unspecified)	859	155	–	–	–	–	–	–
Cc1cn2c(-c3cnn(CC(=O)Nc4cc(F)cc(F)c4)c3)cnc2c(Nc2cc(CN3CCCCC3)ns2)n1	1220	94	2380	–	–	–	–	–
Cc1cn2c(-c3cnn(CC(=O)O)c3)cnc2c(Nc2cc(CN3CCCC(C)C3)ns2)n1 (stereo unspecified)	836	146	–	–	–	–	–	–
Cc1cn2c(-c3cnn(Cc4nc(-c5ccccc5)c[nH]4)c3)cnc2c(Nc2cc(CN3CCCCC3)ns2)n1	583	21	887	–	–	–	–	–
Cc1cn2c(-c3cnn(CC(=O)NCc4ccco4)c3)cnc2c(Nc2cc(CN3CCCC(C)C3)ns2)n1 (stereo unspecified)	213	70	–	–	–	–	–	–
Cc1cn2c(-c3cnn(CC(=O)Nc4cccc(F)c4F)c3)cnc2c(Nc2cc(CN3CCCCC3)ns2)n1	122	≤ 13	58	4.3	> 3000	20	1420	481
Cc1cn2c(-c3cnn(CC(=O)Nc4cccnc4)c3)cnc2c(Nc2cc(CN3CCCC(C)C3)ns2)n1 (stereo unspecified)	186	118	–	–	–	–	–	–
Cc1cn2c(-c3cnn(CC(=O)NCCC(C)C)c3)cnc2c(Nc2cc(CN3CCCCC3)ns2)n1	1800	44	> 1000	–	–	–	–	–
Cc1cn2c(-c3cnn(CC(=O)N(C)C)c3)cnc2c(Nc2cc(CN3CCCCC3)ns2)n1	> 3000	> 3000	–	–	–	–	–	–
Cc1cn2c(-c3cnn(CC(=O)NCc4ccc(C(F)(F)F)cc4)c3)cnc2c(Nc2cc(CN3CCCC(C)C3)ns2)n1 (stereo unspecified)	> 3000	175	–	–	–	–	–	–
Cc1cn2c(-c3cnn(CC(=O)Nc4ccccn4)c3)cnc2c(Nc2cc(CN3CCCC(C)C3)ns2)n1 (stereo unspecified)	185	32	285	–	–	–	–	–
Cc1cn2c(-c3cnn(CC(=O)N(C)Cc4ccccc4)c3)cnc2c(Nc2cc(CN3CCCC(C)C3)ns2)n1 (stereo unspecified)	1630	261	–	–	–	–	–	–
CNC(=O)Cn1cc(-c2cnc3c(Nc4cc(CN5CCCCC5)ns4)nc(C)cn23)cn1	> 3000	193	–	–	–	–	–	–
Cc1cn2c(-c3cnn(CC(=O)NCc4ncco4)c3)cnc2c(Nc2cc(CN3CCCC(C)C3)ns2)n1 (stereo unspecified)	168	178	–	–	–	–	–	–
Cc1cn2c(-c3cnn(CC(=O)Nc4cccc(F)c4)c3)cnc2c(Nc2cc(CN3CCCCC3)ns2)n1	340	≤ 13	892	–	–	–	–	–
COc1ccc(CNC(=O)Cn2cc(-c3cnc4c(Nc5cc(CN6CCCC(C)C6)ns5)nc(C)cn34)cn2)cc1 (stereo unspecified)	1930	161	–	–	–	–	–	–
Cc1cn2c(-c3cnn(CC(=O)Nc4ccccc4F)c3)cnc2c(Nc2cc(CN3CCCCC3)ns2)n1	198	35	388	–	–	–	–	–
Cc1cn2c(-c3cnn(CC(=O)Nc4ccncc4O)c3)cnc2c(Nc2cc(CN3CCCC(C)C3)ns2)n1 (stereo unspecified)	239	282	–	–	–	–	–	–
Cc1cn2c(-c3cnn(CC(=O)O)c3)cnc2c(Nc2cc(CN3CCCCC3)ns2)n1	1830	363	–	–	–	–	–	–

Now those with a lower IC50 (Aurora kinase A), led by results:

IC50 (Aurora kinase A) [nM]	IC50 (Aurora kinase B [1]) [nM]	EC50 (Aurora kinase B [2]) [nM]	IC50 [3] [µM]	IC50 [4] [nM]	IC50 [5] [nM]	IC50 [6] [nM]	IC50 [7] [nM]	Structure (SMILES)
22	≤ 13	389	–	–	–	–	–	Cc1cn2c(-c3cnn(CC(=O)NCc4cc(F)cc(F)c4)c3)cnc2c(Nc2cc(CN3CCCCC3)ns2)n1
45	≤ 13	870	–	–	–	–	–	Cc1cn2c(-c3cnn(CC(=O)NCc4cccc(F)c4F)c3)cnc2c(Nc2cc(CN3CCCCC3)ns2)n1
21	≤ 13	129	–	–	–	–	–	Cc1cn2c(-c3cnn(CC(=O)NCc4ccccc4)c3)cnc2c(Nc2cc(CN3CCCC(C)C3)ns2)n1 (stereo unspecified)
≤ 4	≤ 13	50	0.36	12	20	56	4	Cc1cn2c(-c3cn[nH]c3)cnc2c(Nc2cc(CN3CCCCC3)ns2)n1
100	≤ 13	> 1000	–	–	–	–	–	Cc1cn2c(-c3cnn(CC(=O)Nc4nccs4)c3)cnc2c(Nc2cc(CN3CCCC(C)C3)ns2)n1 (stereo unspecified)
68	91	402	–	–	–	–	–	Cc1cn2c(-c3cnn(CC(=O)Nc4cc[n+]([O-])cc4)c3)cnc2c(Nc2cc(CN3CCCC(C)C3)ns2)n1 (stereo unspecified)
34	51	327	–	–	–	–	–	Cc1cn2c(-c3cnn(CC(=O)Nc4ccccc4)c3)cnc2c(Nc2cc(CN3CCCC(C)C3)ns2)n1 (stereo unspecified)
< 4	≤ 13	62	6.8	271	300	1220	253	Cc1cn2c(-c3cnn(CC(=O)Nc4ccncc4F)c3)cnc2c(Nc2cc(CN3CCCC(C)C3)ns2)n1 (stereo unspecified)
18	≤ 13	534	–	–	–	–	–	Cc1cn2c(-c3cnn(Cc4nc5ccccc5[nH]4)c3)cnc2c(Nc2cc(CN3CCCC(C)C3)ns2)n1 (stereo unspecified)
57	41	442	–	–	–	–	–	COc1cccc(CNC(=O)Cn2cc(-c3cnc4c(Nc5cc(CN6CCCC(C)C6)ns5)nc(C)cn34)cn2)c1 (stereo unspecified)
≤ 4	≤ 13	> 1000	–	–	–	–	–	Cc1cn2c(-c3cnn(Cc4nc(-c5ccccc5)no4)c3)cnc2c(Nc2cc(CN3CCCCC3)ns2)n1
44	≤ 13	469	–	–	–	–	–	Cc1cn2c(-c3cnn(CC(=O)NCc4ccccc4F)c3)cnc2c(Nc2cc(CN3CCCCC3)ns2)n1
30	≤ 13	234	–	–	–	–	–	Cc1cn2c(-c3cnn(CC(=O)NCc4cccc(F)c4)c3)cnc2c(Nc2cc(CN3CCCCC3)ns2)n1
≤ 4	≤ 13	> 1000	–	–	–	–	–	Cc1cn2c(-c3cnn(Cc4noc(-c5ccccc5)n4)c3)cnc2c(Nc2cc(CN3CCCCC3)ns2)n1
40	≤ 13	416	–	–	–	–	–	Cc1cn2c(-c3cnn(CC(=O)NCc4ccc(F)cc4)c3)cnc2c(Nc2cc(CN3CCCCC3)ns2)n1
102	28	164	–	–	–	–	–	Cc1cn2c(-c3cnn(CC(=O)Nc4cccc(F)n4)c3)cnc2c(Nc2cc(CN3CCCC(C)C3)ns2)n1 (stereo unspecified)
53	30	412	–	–	–	–	–	Cc1cn2c(-c3cnn(CC(=O)Nc4ccc(F)cc4)c3)cnc2c(Nc2cc(CN3CCCCC3)ns2)n1

From ChEMBL document CHEMBL2021851, “Synthesis and SAR studies of imidazo-[1,2-a]-pyrazine Aurora kinase inhibitors with improved off-target kinase selectivity” (Bioorg Med Chem Lett, 2012)
